Among the test systems are HCC-2998 colon; HOP-62 NSCLC; KM12 colon; MCF7 breast; MOLT-4 leukemia; NCI-H226 lung; NCI-H522 lung; NCI/ADR-RES ovarian; SF-539 CNS; SW-620 colon.
Holding throughout (assay): NCI anticancer screen, dose series, 48 h

Results on 12 compounds are retold here after PubChem BioAssay (NCI).

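Grown in 96-well plates, cells were treated for 48 hours with each compound at five concentrations. Insufficient inhibition: endpoint recorded as highest concentration tested. At the GI50, growth is halved. The concentration for full growth arrest is given as TGI.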 Some results are limits rather than exact numbers.

On to `N#Cc1ccc2c(c1)C(=O)c1c-2n(CCCCl)c(=O)c2cc([N+](=O)[O-])ccc12`, for which the GI50 was 12 µM in the assay with HCC-2998 colon; 2550 nM with HOP-62 NSCLC; more than 100000 nM in the assay with KM12 colon; 380 nM with MCF7 breast; 1340 nM in the assay on MOLT-4 leukemia; 9.1 µM in the assay on NCI-H226 lung. Moreover, the GI50 in the assay with NCI-H522 lung is 3.07 µM; in the assay with NCI/ADR-RES ovarian, 6 µM; with SF-539 CNS, 2620 nM; with SW-620 colon it was 801 nM. For the same compound, the TGI in the assay with HCC-2998 colon is more than 100 µM; in the assay with HOP-62 NSCLC it was 14 µM; with KM12 colon it was more than 100 µM; with MCF7 breast, more than 100 µM; in the assay on MOLT-4 leukemia, 5.26 µM; in the assay on NCI-H226 lung it was 89.9 µM. The TGI in the assay on NCI-H522 lung is 24.3 µM; in the assay on NCI/ADR-RES ovarian, more than 100 µM; in the assay on SF-539 CNS it was 10.5 µM; in the assay on SW-620 colon, more than 100 µM.

On to `C=C1C(=O)O[C@H]2[C@H]1CC/C(COC(=O)c1cc3ccccc3o1)=C\CC[C@@]1(C)O[C@@H]21`, for which the GI50 was 2.47 µM in the assay with HCC-2998 colon; 2480 nM with HOP-62 NSCLC; 2020 nM in the assay with KM12 colon; 395 nM in the assay on MCF7 breast; 1770 nM with MOLT-4 leukemia; 1.74 µM in the assay with NCI-H226 lung. Further, the GI50 with NCI-H522 lung is 0.68 µM; in the assay on NCI/ADR-RES ovarian it was 2.59 µM; in the assay on SF-539 CNS, 1450 nM; in the assay with SW-620 colon it was 662 nM. Further, the TGI was 5.84 µM in the assay on HCC-2998 colon; 7.07 µM in the assay on HOP-62 NSCLC; 4.61 µM with KM12 colon; 2.18 µM in the assay on MCF7 breast; 6.06 µM in the assay with MOLT-4 leukemia; 3.6 µM in the assay with NCI-H226 lung. Moreover, the TGI was found to be 2.39 µM with NCI-H522 lung, 10.1 µM in the assay on NCI/ADR-RES ovarian, 2.84 µM with SF-539 CNS and 2.49 µM in the assay with SW-620 colon.

Regarding `O=C1CC(=O)N(C(=O)c2nn(-c3ccc(Cl)cc3)cc2O)N1`, the GI50 in the assay on HCC-2998 colon was 4.17 µM; with HOP-62 NSCLC it was 500 nM; in the assay on KM12 colon, 1030 nM; with MCF7 breast it was 1240 nM; with MOLT-4 leukemia, 403 nM; with NCI-H226 lung, 0.724 µM. In addition, the GI50 in the assay with NCI-H522 lung is 0.299 µM; with NCI/ADR-RES ovarian, 1.16 µM; in the assay on SF-539 CNS, 371 nM; in the assay with SW-620 colon, 2190 nM. The TGI in the assay with HCC-2998 colon is more than 100 µM; with HOP-62 NSCLC, more than 100 µM; in the assay on KM12 colon it was more than 100 µM; with MCF7 breast, more than 100 µM; in the assay with MOLT-4 leukemia, more than 41.7 µM; in the assay on NCI-H226 lung, more than 96.6 µM. The TGI in the assay on NCI-H522 lung is 3.17 µM; in the assay with NCI/ADR-RES ovarian, more than 100 µM; with SF-539 CNS, more than 63 µM; in the assay with SW-620 colon, more than 100 µM.

For `Cc1cc(=O)oc2c(C)c(O)ccc12`, the TGI with HCC-2998 colon, in the assay with HOP-62 NSCLC, with KM12 colon, with MCF7 breast, with MOLT-4 leukemia and in the assay on NCI-H226 lung was more than 100 µM in each case. Further, the TGI in the assay on NCI-H522 lung, in the assay with NCI/ADR-RES ovarian, in the assay with SF-539 CNS and in the assay with SW-620 colon was more than 100 µM each time.

Turning to `CS(=O)(=O)CCNCc1ccc(-c2ccc3ncnc(Nc4ccc(OCc5ccccc5)c(Br)c4)c3c2)o1`, the GI50 in the assay on HCC-2998 colon is 4.56 µM; in the assay on HOP-62 NSCLC, 11200 nM; in the assay on KM12 colon, 9060 nM; in the assay on MCF7 breast, 7070 nM; with MOLT-4 leukemia, 9200 nM; in the assay with NCI-H226 lung it was 10.1 µM. Further, the GI50 was 3.86 µM in the assay on NCI-H522 lung, 6.87 µM in the assay with NCI/ADR-RES ovarian, 5410 nM in the assay with SF-539 CNS and 5290 nM with SW-620 colon. Further, the TGI with HCC-2998 colon is 9.11 µM; in the assay on HOP-62 NSCLC, more than 25 µM; in the assay with KM12 colon, more than 25 µM; in the assay with MCF7 breast it was 24.6 µM; in the assay on MOLT-4 leukemia, more than 25 µM; in the assay with NCI-H226 lung, more than 25 µM. The TGI was 10.6 µM in the assay on NCI-H522 lung, more than 25 µM in the assay with NCI/ADR-RES ovarian, 13.2 µM with SF-539 CNS and 11.1 µM with SW-620 colon.

Take `O=c1ccs[nH]1`: the TGI came out at 8.02 µM with HCC-2998 colon; 38.6 µM with HOP-62 NSCLC; 62.1 µM with KM12 colon; 38.7 µM in the assay on MCF7 breast; 25 µM with MOLT-4 leukemia; 71.6 µM with NCI-H226 lung. In addition, the TGI in the assay with NCI-H522 lung is 1.75 µM; in the assay with NCI/ADR-RES ovarian, 50.5 µM; with SF-539 CNS, 18.3 µM; with SW-620 colon, 50.1 µM.

For `COc1cc2ncn(-c3cc(O[C@@H](C)c4ccccc4Cl)c(C(N)=O)s3)c2cc1OC`, the GI50 with HCC-2998 colon is 2.55 µM; in the assay with HOP-62 NSCLC, 744 nM; in the assay on KM12 colon, 559 nM; in the assay with MCF7 breast, 111 nM; with MOLT-4 leukemia, 926 nM; with NCI-H226 lung, 2.3 µM. For the same compound, the GI50 was 0.434 µM with NCI-H522 lung, 0.429 µM with NCI/ADR-RES ovarian, 832 nM with SF-539 CNS and 612 nM in the assay with SW-620 colon. The TGI with HCC-2998 colon was more than 25 µM; in the assay on HOP-62 NSCLC, more than 25 µM; in the assay on KM12 colon, more than 25 µM; in the assay on MCF7 breast, more than 25 µM; with MOLT-4 leukemia it was more than 18.4 µM; with NCI-H226 lung, more than 19.4 µM. The TGI in the assay with NCI-H522 lung is 6.51 µM; in the assay on NCI/ADR-RES ovarian it was more than 25 µM; in the assay on SF-539 CNS it was more than 25 µM; in the assay on SW-620 colon, more than 25 µM.

As for `CCCN(CCC)c1ccc(/C=C/c2ccc3cc(OCC)ccc3n2)cc1`, the GI50 in the assay with HCC-2998 colon was more than 100 µM; with HOP-62 NSCLC, more than 100000 nM; in the assay on KM12 colon, more than 100000 nM; in the assay with MCF7 breast, more than 100000 nM; with MOLT-4 leukemia, more than 100000 nM; in the assay with NCI-H226 lung it was 58.6 µM. The GI50 in the assay on NCI-H522 lung was 35.1 µM; with NCI/ADR-RES ovarian, more than 100 µM; in the assay on SF-539 CNS it was more than 100000 nM; with SW-620 colon, more than 100000 nM. The TGI in the assay with HCC-2998 colon, in the assay on HOP-62 NSCLC, with KM12 colon, in the assay on MCF7 breast, with MOLT-4 leukemia and in the assay with NCI-H226 lung was more than 100 µM throughout. Further, the TGI with NCI-H522 lung, with NCI/ADR-RES ovarian, in the assay on SF-539 CNS and in the assay on SW-620 colon was more than 100 µM in each case.

In the case of `COc1ccc(-c2cc(-c3cccn3C)c(C#N)c(=O)[nH]2)cc1OC`, the GI50 in the assay with HCC-2998 colon was 88.7 µM; with HOP-62 NSCLC, more than 100000 nM; with KM12 colon, more than 100000 nM; in the assay on MCF7 breast, more than 100000 nM; with MOLT-4 leukemia it was 22700 nM; in the assay with NCI-H226 lung it was more than 100 µM. In addition, the GI50 in the assay on NCI-H522 lung was more than 100 µM; in the assay with NCI/ADR-RES ovarian, more than 100 µM; with SF-539 CNS, 66800 nM; in the assay with SW-620 colon, more than 100000 nM. The TGI with HCC-2998 colon, in the assay on HOP-62 NSCLC, with KM12 colon, in the assay with MCF7 breast, in the assay with MOLT-4 leukemia and in the assay with NCI-H226 lung was more than 100 µM in each case. Moreover, the TGI with NCI-H522 lung, in the assay on NCI/ADR-RES ovarian, in the assay with SF-539 CNS and in the assay with SW-620 colon was more than 100 µM throughout.

In the case of `COc1cccc(/C=C/[N+](=O)[O-])c1`, the GI50 in the assay with HCC-2998 colon is 1.93 µM; in the assay with HOP-62 NSCLC it was 12800 nM; with KM12 colon, 2540 nM; with MCF7 breast it was 1200 nM; in the assay with MOLT-4 leukemia, 3060 nM; with NCI-H226 lung, 26.2 µM. Besides, the GI50 with NCI-H522 lung was 11.1 µM; in the assay on NCI/ADR-RES ovarian, 26.2 µM; with SF-539 CNS, 2640 nM; with SW-620 colon, 1970 nM. Besides, the TGI worked out at 3.51 µM in the assay on HCC-2998 colon; 26.6 µM with HOP-62 NSCLC; 7.35 µM in the assay with KM12 colon; 3.93 µM in the assay with MCF7 breast; 11.9 µM in the assay with MOLT-4 leukemia; 65.3 µM in the assay with NCI-H226 lung. In addition, the TGI in the assay with NCI-H522 lung was found to be 23.5 µM; in the assay with NCI/ADR-RES ovarian, 97.8 µM; in the assay with SF-539 CNS, 8.72 µM; in the assay with SW-620 colon, 4.27 µM.

Take `C=C(C)[C@@H]1CC[C@]2(C(=O)O)CC[C@]3(C)[C@H](CC[C@@H]4[C@@]5(C)CCC(NC(=O)c6cccc(OC(C)=O)c6OC(C)=O)C(C)(C)[C@@H]5CC[C@]43C)[C@@H]12` (stereo partly specified): the GI50 in the assay with HCC-2998 colon was 1.57 µM; with HOP-62 NSCLC, 785 nM; with KM12 colon, 651 nM; in the assay with MCF7 breast it was 586 nM; in the assay on MOLT-4 leukemia, 497 nM; with NCI-H226 lung, 1.69 µM. For the same compound, the GI50 with NCI-H522 lung was 0.371 µM; with NCI/ADR-RES ovarian it was 0.817 µM; in the assay with SF-539 CNS, 576 nM. Moreover, the TGI worked out at 4.51 µM in the assay on HCC-2998 colon; 3.3 µM in the assay with HOP-62 NSCLC; 3.46 µM in the assay with KM12 colon; 6.42 µM in the assay on MCF7 breast; 2.85 µM in the assay with MOLT-4 leukemia; 4.59 µM in the assay on NCI-H226 lung. Moreover, the TGI in the assay with NCI-H522 lung worked out at 1.62 µM; in the assay with NCI/ADR-RES ovarian, 6.43 µM; in the assay with SF-539 CNS it was 2.5 µM.

As to `CNC(=S)NC(=O)c1c(Cl)n(C(=O)OC(C)(C)C)c2ccccc12`, the GI50 was 27.6 µM with HCC-2998 colon; more than 100000 nM in the assay with HOP-62 NSCLC; 77400 nM with KM12 colon; 28300 nM with MCF7 breast; more than 100 µM in the assay with NCI-H226 lung; 30.6 µM with NCI-H522 lung. Besides, the GI50 in the assay on NCI/ADR-RES ovarian is 47.8 µM; in the assay on SF-539 CNS, 35000 nM; in the assay on SW-620 colon it was 79200 nM. In addition, the TGI was more than 100 µM with HCC-2998 colon; more than 100 µM with HOP-62 NSCLC; more than 100 µM in the assay with KM12 colon; more than 100 µM in the assay with MCF7 breast; more than 100 µM in the assay with NCI-H226 lung; 90.9 µM with NCI-H522 lung. Further, the TGI with NCI/ADR-RES ovarian, in the assay on SF-539 CNS and in the assay on SW-620 colon was more than 100 µM in each case.
